From EP1015446B1, “(4-PIPERIDINYL)-1H-2-BENZOPYRAN DERIVATIVES USEFUL AS ANTIPSYCHOTIC AGENTS” (Aventis Pharmaceuticals Inc., priority 1997, dated 1998)
Structures can show the parent of a compound that is named as a salt. Where two headings read alike, the source gives them in different places.

Columns and labels:
[1] = target: T1, cloned human dopamine D2Long receptors (Homo sapiens, UniProt P14416); experiment: biochemical; assay type: binding
T1 construct: expressed in transfected cells; membranes used
T1 sequence (P14416 whole entry): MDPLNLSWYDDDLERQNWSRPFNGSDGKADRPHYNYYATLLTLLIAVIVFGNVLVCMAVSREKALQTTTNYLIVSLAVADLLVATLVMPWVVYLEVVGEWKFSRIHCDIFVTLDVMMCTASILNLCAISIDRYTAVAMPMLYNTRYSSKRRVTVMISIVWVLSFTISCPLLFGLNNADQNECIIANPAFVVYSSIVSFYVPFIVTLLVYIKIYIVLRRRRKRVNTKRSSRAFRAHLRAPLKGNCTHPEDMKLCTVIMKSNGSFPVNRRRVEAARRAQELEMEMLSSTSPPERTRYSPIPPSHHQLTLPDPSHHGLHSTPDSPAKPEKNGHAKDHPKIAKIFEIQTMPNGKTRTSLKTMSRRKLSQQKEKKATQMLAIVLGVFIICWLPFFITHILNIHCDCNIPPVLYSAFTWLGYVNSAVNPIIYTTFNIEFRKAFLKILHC
Procedure: A single high expressing clonal cell line was isolated and membranes from this cell line were used for receptor binding assays. […] The incubation buffer contained: 50 mM Tris, 120 mM NaCl; 5 mM Kcl; 2 mM CaCl2; 1 mM MgCl2; pH 7.7). […] Incubations were performed at 37 °C in a shaking water bath for 30 min, terminated by rapid filtration through Whatman GF/B filters (presoaked in 0.3% polyethyleneimine), and counted in a liquid scintillation counter. Non-specific binding was defined as that remaining in the presence of 3 µM eticlopride. […] The percent inhibition at each drug concentration was the average of duplicate determinations.
For most assays, a 100mM stock solution of test compound with solvent and buffer is prepared so that concentrations of 10^-5 to 10^-8M are attained. Cheng-Prisoff determination (Ki's) are performed using Prism software.

CD-1 male mice = experiment: Climbing mouse assay (CMA): antagonism of apomorphine-induced climbing; assay type: in vivo
Procedure: This test may be used as to identify compounds useful in treating psychosis. Costall, B. et al, Eur. J. Pharm. 50: 39-50 (1978); Protais, P., et al., Psychopharmacology 50:1-6 (1976). […] This effect of apomorphine is antagonized by the D2 receptor antagonist.
CD-1 male mice (20-30 grams) are assigned to groups of 8 and individually placed in wire mesh stick cages and allowed one hour for adaptation to new environment. Apomorphine is injected at 1.5 mg/kg subcutaneously which is a dose which causes climbing in all subjects for thirty minutes. Test compounds are administered intraperitoneally thirty minutes prior to the apomorphine administration at a dose of 20 mg/kg.
For evaluation of climbing, three readings are taken at ten, twenty and thirty minutes after apomorphine administration according to the following scale:
The climbing scores are individually totaled (maximal score: 6 per mouse over three readings) and total score of the control (vehicle intraperitoneally (ip) and apomorphine subcutaneous) is set to 100%. ED50 values with 95% confidence limits calculated by a linear regression analysis of some of the compounds of the present invention as well as a standard antipsychotic agent (clozapine) are presented in Table 1.

[2] = Binding to Human D2Long Receptors, displacement of [3H]N-methyl spiroperidol (0.4 nM), membranes of transfected Chinese Hamster Ovary cells, 37 °C, 30 min, read-out: Ki
[3] = ip, thirty minutes prior to apomorphine 1.5 mg/kg subcutaneously, climbing scored at ten, twenty and thirty minutes, linear regression analysis, read-out: ED50

Molecule | Ki [1, 2] | ED50 (CD-1 male mice; [3]) | also measured
Br.Br.CC(=O)Oc1ccc2c(c1OC(C)=O)C[C@@H](C1CCN(CCc3ccccc3)CC1)O[C@H]2CN (relative stereo) [Example 4E, cis-1-(Aminomethyl)-5,6-diacetoxy-3,4-dihydro-3-[1-(2-phenylethyl)-4-piperidinyl]-1H-2-benzopyran Dihydrobromide] | 1520 nM | 11.1 mg/kg | –
Br.Br.NC[C@@H]1O[C@H](C2CCN(CCCc3noc4cc(F)ccc34)CC2)Cc2c1ccc(O)c2O (relative stereo) [Example 9, cis-1-(Aminomethyl)-3,4-dihydro-3-[1-[3-(6-fluoro-1,2-benzisoxazol-3-yl)propyl]piperidin-4-yl]-1H-2-benzopyran-5,6-diol Dihydrobromide] | 178 nM | 16 mg/kg | –
CS(=O)(=O)N1CCC([C@@H]2Cc3c(ccc(O)c3O)[C@H](CN)O2)CC1 (relative stereo) [Example 3D, cis-1-(Aminomethyl)-3,4-dihydro-3-(1-methylsulfonyl-4-piperidinyl)-1H-2-benzopyran-5,6-diol Hydrobromide] | 4200 nM | – | –
O=CNC[C@@H]1O[C@H](C2CCN(CCCC(c3ccc(F)cc3)c3ccc(F)cc3)CC2)Cc2c1ccc1c2OC2(CCCCC2)O1 [Example 28, cis-N-[3-[1-[4,4-Bis-(4-fluorophenyl)butyl]-4-DiDeridinyl]-5,6-(cyclohexylidenedioxy)-3,4-dihydro-1H-2-benzopyran-1-ylmethyl]formamide Oxalate Hemihydrate] | – | – | Ki [1]: 639 nM
cis-3-[1-[2-(4-Chlorophenyl)ethyl]--4-piperidinyl]-3,4-dihydro-1-(N-methylaminomethyl)-1H-2-benzopyran-5,6-diol dihydrochloride hemihydrate [Example 15] | 413 nM | – | –
NC[C@@H]1O[C@H](C2CCN(CCc3cccs3)CC2)Cc2c1ccc(O)c2O (relative stereo) [Example 25, cis-1-Aminomethyl-3,4-dihydro-3-[1-(2-(thiophen-2-yl)-ethyl-4-piperidinyl]-1H-2-benzopyral-5,6-diol Dihydrochloride Hydrate] | 2100 nM | – | –
CN1CCN(C2=Nc3cc(Cl)ccc3Nc3ccccc32)CC1 [Clozapine, reference compound] | – | 8.1 mg/kg | –
cis-1-(3-[3-[4-[1-(Aminomethyl)-3,4-dihydro-5,6-dihydroxy-1H-2-benzopyran-3-yl]-1-piperidinyl]propoxy]-3-methoxyphenyl)ethanone Dihydrochloride Dihydrate [Example 31] | 1100 nM | – | –
CNC[C@@H]1O[C@H](C2CCN(CCc3ccc(OC)cc3)CC2)Cc2c1ccc(O)c2O (relative stereo) [Example 10, cis-3,4-Dihydro-3-[1-[2-(4-methoxyphenyl)ethyl]-4-piperidinyl]-1-(N-methylaminomethyl)-1H-2-benzopyran-5,6-diol Dihydrochloride] | 2500 nM | – | –
Cc1ccccc1CCN1CCC([C@@H]2Cc3c(ccc(O)c3O)[C@H](CN)O2)CC1 (relative stereo) [Example 26, cis-1-Aminomethyl-3,4-dihydro-3-[1-[2-(2-methylphenyl)ethyl]-4-piperidinyl]-1H-2-benzopyran-5,6-diol Dihydrochloride] | 684 nM | – | –
Br.Br.CNC[C@@H]1O[C@H](C2CCN(CCc3ccccc3)CC2)Cc2c1ccc(O)c2O (relative stereo) [Example 5, cis-1-(N-Methylaminomethyl)-3,4-dihydro-3-[1-(2-phenylethyl)-4-piperidinyl)-1H-2-benzopyran-5,6-diol Dihydrobromide] | – | 6.9 mg/kg | –
COc1ccc2c(c1OC)C[C@@H](C1CCN(CCCC(=O)c3ccc(F)cc3)CC1)O[C@H]2CNC=O.Cl (relative stereo) [Example 21, N-[3-[1-[4-(4-Fluorophenyl)-4-oxobutyl]-4-piperidinyl]-3,4-dihydro-5,6-dimethoxy-1H-2-benzopyran-1-ylmethyl]formamide Hydrochloride] | – | 19.6 mg/kg | –
NC[C@@H]1O[C@H](C2CCN(CCc3ccccc3)CC2)Cc2c1ccc(O)c2O (relative stereo) [Example 4D, cis-1-(Aminomethyl)-3,4-dihvdro-3-[1-(2-phenylethyl)-4-piperidinyl]-1H-2-benzopyran-5,6-diol Dihydrobromide Sesquihydrate] | – | – | ED50 (CD-1 male mice): 8.1 mg/kg
CCN1CCC([C@@H]2Cc3c(ccc(O)c3O)[C@H](CN)O2)CC1 (relative stereo) [Example 8, cis-1-(Aminomethyl)-3,4-dihydro-3-(1-ethyl-4-piperidinyl)-1H-2-benzopyran-5,6-diol Dihydrobromide] | 2510 nM | – | –
